# Legend:
# KSHV = type: cell-based, human
# JSC-1 = experiment: WST-1 cytotoxicity assay, JSC-1 (KSHV+ PEL); type: cell-based; conditions: 72 h, read-out: KSHV-infected lymphomas CC50, JSC-1
# Source text: (§1) Fig 2 Identification of newly synthesized dual inhibitors with anti-PEL activities. (A) The binding mode of (+)-JQ1 with BRD4^BD1 (PDB: 3MXF). BRD4^BD1 is shown as hot pink cartoon with gray surface. Asn140 in BRD4^BD1 is shown as sticks and colored in following pattern: atom C hot pink, atom N dark blue, and atom O yellow. (+)-JQ1 is shown as sticks and colored in following patten: atom C hot pink, atom N dark blue, atom O yellow, atom S golden, and atom Cl green. The solvent exposed region (SEG) of (+)-JQ1 are indicated with white arrow. (B) The binding modes of SAHA and entinostat with HDAC2 (PDB: 3MAX). HDAC2 is shown as blue cartoon with gray surface. Asp181 and His183 in HDAC2 are shown as sticks and colored in following pattern: atom C blue, atom N dark blue, and atom O yellow. The catalytic zinc ion in the active site of HDAC2 is shown as black sphere. SAHA is shown as sticks and colored in following pattern: atom C green, atom N dark blue, and atom O yellow. Entinostat is shown as sticks and colored in following pattern: atom C hot pink, atom N dark blue, and atom O yellow. The SEG of SAHA or entinostat is indicated with white arrow. Hydrogen bonds (H-bonds) are presented by red dash lines. (C) The HDACs/BRD4 dual inhibitors 002-011 were designed by fusing the key pharmacophores of (+)-JQ1 (pink) and HDAC inhibitors (blue), SAHA or entinostat, via various chemical linkers (green). (D) Anti-PEL activities of the new compounds. Five KSHV positive and two KSHV negative lymphoma cell lines were treated with indicated concentrations of these compounds for 72 h. Then the cytotoxicity was determined using the WST-1 assay. (+)-JQ1, SAHA and entinostat were used for the comparisons as single inhibitors. The CC50 for each compound was calculated using GraphPad Prism 5.0 software. Error bars represent S.D. for 3 independent experiments.
# (§2) Fig 4 Identification of anti-PEL activities for compound 009 stereoisomers. (A) The chemical structures of anti-HDACs/BRD4 bifunctional molecules 009P1 and 009P2, as well as anti-HDACs or anti-BRD4 mono-functional molecules 009N1, 009N2, 009N3, and 009N4. (B-C) Four KSHV+ PEL cell lines were treated with indicated concentrations of 009P1, 009P2 or 009N1-N4 for 72 h, then the cytotoxicity was determined using the WST-1 assay. (D-I) BCBL-1 cells were treated with these compounds at the respective 2× CC50 for 24 h, then cell cycle (D-F) and apoptosis (G-I) were measured by flow cytometry analysis. Error bars represent S.D. for 3 independent experiments, ** = p<0.01 (vs vehicle control).
# (§3) The cell viability following treatment with compounds was assessed by the WST-1 assay (Roche, Indianapolis, Indiana, USA) according to the manufacturer’s protocol as described previously. The absorbance signal was measured using a microplate reader (Biotek Synergy 2). The 50% cytotoxic concentration (CC50) for each compound was calculated from these dose-response curves using the software GraphPad Prism v5.0. Data were normalized as the fold change compared to the DMSO control.
# BC-1 = experiment: WST-1 cytotoxicity assay, BC-1 (KSHV+ PEL); type: cell-based; conditions: Homo sapiens, BC1, 72 h, read-out: KSHV-infected lymphomas CC50, BC-1
# Source text: as §1, §2, §3
# BCBL-1 = experiment: WST-1 cytotoxicity assay, BCBL-1 (KSHV+ PEL); type: cell-based; conditions: BCBL1, 72 h, read-out: KSHV-infected lymphomas CC50, BCBL-1
# Source text: as §1, §2, §3
# BJAB.219 = experiment: WST-1 cytotoxicity assay, BJAB.219 (KSHV-infected lymphoma); type: cell-based; conditions: 72 h, read-out: KSHV-infected lymphomas CC50, BJAB.219
# Source text: as §1
# BCBL-1 and iSLK.219 cells were kindly provided by Dr. Pinghui Feng (University of Southern California). BL-41, BJAB, BCP-1, BC-1, BC-3, JSC-1, HUVEC cells were purchased from American Type Culture Collection (ATCC), and cultured as recommended by the manufacturer. For making BJAB.219 cells, BJAB cells were infected with rKSHV.219 stock by spinoculation as previously reported by centrifugation at 1500×g for 60 min [31]. Then, puromycin (10 μg/ml) was added into the medium at 72 h post-infection and the medium containing puromycin was replaced twice a week. After 6-week high concentration of puromycin selection, BJAB.219 cells were then cultured in the medium with 0.5 μg/ml puromycin.
# The cell viability following treatment with compounds was assessed by the WST-1 assay (Roche, Indianapolis, Indiana, USA) according to the manufacturer’s protocol as described previously. The absorbance signal was measured using a microplate reader (Biotek Synergy 2). […]
# BCP-1 = experiment: WST-1 cytotoxicity assay, BCP-1 (KSHV+ PEL); type: cell-based; conditions: BCP-1, 72 h, read-out: KSHV-infected lymphomas CC50, BCP-1
# Source text: as §1, §2, §3
# [1] = WST-1 cytotoxicity assay, BL-41 (KSHV negative lymphoma); type: cell-based; conditions: human
# Source text: as §1, §3
# [2] = WST-1 cytotoxicity assay, BJAB (KSHV negative lymphoma); type: cell-based; conditions: human
# Source text: as §1, §3
compound,measurement,setting,value
"Cc1sc2c(c1C)C(c1ccc(Cl)cc1)=N[C@@H](CC(=O)OC(C)c1ccc(C(=O)Nc3ccccc3N)cc1)c1nnc(C)n1-2 (stereo partly drawn) [compound 009, 1-(4-((2-aminophenyl)carbamoyl)phenyl)ethyl 2-((S)-4-(4-chlorophenyl)-2,3,9-trimethyl-6H-thieno[3,2-f][1,2,4]triazolo[4,3-a][1,4]diazepin-6-yl)acetate]","Expression of lytic genes RTA, PF and ORF26",KSHV,elevated
same,CC50,JSC-1,0.084 µM
same,CC50,BC-1,0.096 µM
same,CC50,BCBL-1,0.02 µM
same,CC50,BJAB.219,0.23 µM
same,CC50,BCP-1,0.12 µM
same,CC50 at 72 h,[1],3.37 µM
same,CC50 at 72 h,[2],1.32 µM

# Reference: paper PMC9879403, “Oncolytic strategy using new bifunctional HDACs/BRD4 inhibitors against virus-associated lymphomas” (PLOS Pathogens, 2023)
